We go through 33 compounds from patent US20120004228A1, “Bis Aromatic Compounds for Use as LTC4 Synthase Inhibitors” (BIOLIPOX AB, priority 2009, published 2012).

The first assay addresses T1, Recombinant human LTC4 synthase (Homo sapiens, UniProt Q16873).
T1 construct: made in house; host or cells: Pichia pastoris ('Piccia pastoralis' [sic])
T1 sequence (Q16873 1-150): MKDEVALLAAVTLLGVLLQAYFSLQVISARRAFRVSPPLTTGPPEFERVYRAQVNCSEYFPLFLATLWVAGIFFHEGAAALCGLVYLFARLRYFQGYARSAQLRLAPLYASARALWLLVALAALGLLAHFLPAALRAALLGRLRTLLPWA
The assay is described as follows: In vitro LTC4 synthase assay (LTA4 to LTC4, HTRF detection). It counts as biochemical.
Conditions: not given
How it is done: In the assay, LTC4 synthase catalyses the reaction where the substrate LTA4 is converted to LTC4. Recombinant human LTC4 synthase is expressed in Piccia pastoralis and the purified enzyme is dissolved in 25 mM tris-buffer pH 7.8 supplemented with 0.1 mM glutathione (GSH) and stored at −80° C. The assay is performed in phosphate buffered saline (PBS) pH 7.4 and 5 mM GSH in 384-well plates.
The following is added chronologically to each well:
1. 48 μL LTC4 synthase in PBS with 5 mM GSH. The total protein concentration in this solution is 0.5 μg/mL. 2. 1 μL inhibitor in DMSO (final concentration 10 μM). 3. Incubation of the plate at room temperature for 10 min. 4. 1 μL LTA4 (final concentration 2.5 μM). 5. Incubation of the plate at room temperature for 5 min. 6. 10 μL of the incubation mixture is analysed using homogenous time resolved fluorescent (HTRF) detection.
Turning to `CN(c1ccc(Cl)cc1)c1ccc(C(=O)c2cc(C(=O)O)cc(C(=O)Nc3ccc4c(c3)OC(F)(F)O4)c2)cc1` [2:12, 3-{4-[(4-Chlorophenyl)(methyl)amino]benzoyl}-5-[3,4-(difluoromethylene-dioxy)phenylcarbamoyl]benzoic acid], the IC50 (usually the concentration that inhibits the measured activity by half) came to 424 nM. Consider `CN(c1ccc(Cl)cc1)c1ccc(C(=O)c2cc(NC3CCSCC3)cc(C(=O)O)c2)cc1` [10:21], for which the IC50 stood at 143 nM. Same read-out and setting: with `CN(c1ccc(Cl)cc1)c1ccc(C(=O)c2cc(C(=O)O)cc(N3CCOCC3)c2)nc1` [9:36, 3-{5-[(4-Chlorophenyl)(methyl)amino]picolinoyl}-5-(4-morpholinyl)benzoic acid] the figure was 1000 nM. Regarding `CCCCCCC(=O)Nc1ccc(C(=O)c2ccc(Nc3ccc(Cl)cc3)cc2C(=O)O)cc1` [Example 4:1, 5-(4-Chlorophenylamino)-2-(4-heptylamidobenzoyl)benzoic acid], the IC50 worked out at 646 nM. The same measure, in the same setting: with `CCC(CC)C(=O)N(c1ccccc1)c1cc(C(=O)O)cc(C(=O)c2ccc(N(C)c3ccc(Cl)cc3)cc2)c1` [10:33, 3-{4-[(4-Chlorophenyl)(methyl)amino]benzoyl}-5-(2-ethyl-N-phenylbutan-amido)benzoic acid] the figure was 757 nM.

In the case of `COc1cccc(C(=O)c2cc(C(=O)O)cc(C(=O)c3ccc(N(C)c4ccc(Cl)cc4)cn3)c2)c1` [Example 15, 3-{5-[(4-Chlorophenyl)(methyl)amino]picolinoyl}-5-(3-methoxybenzoyl)benzoic acid], the half-inhibitory concentration (IC50) worked out at 173 nM. Same read-out and setting: with `CN(c1ccc(Cl)cc1)c1ccc(C(=O)c2cc(Oc3ccccc3)cc(C(=O)O)c2)cc1` [8:11, 3-{4-[(4-Chlorophenyl)(methyl)amino]benzoyl}-5-phenoxybenzoic acid] the figure was 61 nM. On the same count and under the same terms, with `COc1ccc(COc2cc(C(=O)O)cc(C(=O)c3ccc(N(C)c4ccc(Cl)cc4)cn3)c2)cc1` [Example 11:1, 3-{5-[(4-Chlorophenyl)(methyl)aminol]picolinoyl}-5-(4-methoxybenzyloxy)benzoic acid] the figure was 887 nM. Same read-out and setting: next, `CN(Cc1ccc2c(c1)OCO2)c1cc(C(=O)O)cc(C(=O)c2ccc(N(C)c3ccc(Cl)cc3)cn2)c1` [9:14, 3-{5-[(4-Chlorophenyl)(methyl)amino]picolinoyl}-5-[(3,4-methylenedioxy-benzyl)(methyl)amino]benzoic acid]: 103 nM; `CN(c1ccc(Cl)cc1)c1ccc(C(=O)c2cc(C(=O)O)cc(N3CCc4ccccc4C3)c2)nc1` [9:13, 3-{5-[(4-Chlorophenyl)(methyl)amino]picolinoyl}-5-(1,2,3,4-tetrahydroiso-quinolin-2-yl)benzoic acid]: 531 nM; `O=C(O)c1cc(Nc2ccccc2)cc(C(=O)c2ccc(N(CC3CC3)c3ccc(Cl)cc3)cn2)c1` [9:20, 3-{5-[(4-Chlorophenyl)(cyclopropylmethyl)amino]picolinoyl}-5-(phenylamino)-benzoic acid]: 30 nM. As to `CN(c1ccc(Cl)cc1)c1ccc(C(=O)c2cc(C(=O)O)cc(C(=O)Nc3cccc(Cl)c3)c2)nc1` [2:4, 3-{5-[(4-Chlorophenyl)(methyl)amino]picolinoyl}-5-(3-chlorophenyl-carbamoyl)-benzoic acid], the IC50 was found to be 390 nM.

Regarding `CN(c1ccc(Cl)cc1)c1ccc(C(=O)c2cc(C(=O)O)cc(N(C)c3ccc4c(c3)OCO4)c2)nc1` [9:30, 3-{5-[(4-Chlorophenyl)(methyl)amino]picolinoyl}-5-[(3,4-methylenedioxy-phenyl)(methyl)amino]benzoic acid], the IC50 came out at 197 nM. On the same count and under the same terms, next, `CN(c1ccc(Cl)cc1)c1ccc(C(=O)c2cc(C(=O)O)cc(N(C)c3ccccc3)c2)cc1` [Example 10:23, 5-{4-[(4-Chlorophenyl)(methyl)amino]benzoyl}-3-[methyl(phenyl)amino]benzoic acid]: 40 nM; `CN(c1ccc(Cl)cc1)c1ccc(C(=O)c2cc(C(=O)O)cc(N(C)c3ccc4c(c3)OCCO4)c2)nc1` [9:34, 3-{5-[(4-Chlorophenyl)(methyl)amino]picolinoyl}-5-[(3,4-ethylenedioxy-phenyl)(methyl)amino]benzoic acid]: 216 nM.

Turning to `CN(c1ccc(Cl)cc1)c1ccc(C(=O)c2cc(Nc3ccc(C(F)(F)F)cc3)cc(C(=O)O)c2)cc1` [10:17, 3-{4-[(4-Chlorophenyl)(methyl)amino]benzoyl}-5-(4-trifluoromethylphenyl-amino)benzoic acid], the IC50 was 159 nM.

As to `CN(c1ccc(Cl)cc1)c1ccc(C(=O)c2cc(NC(=O)c3cccc(C(F)(F)F)c3)cc(C(=O)O)c2)nc1` [Example 2:7, 3-{5-[(4-Chlorophenyl)(methyl)amino]picolinoyl}-5-[3-(trifluoromethyl)benzamido]-benzoic acid], the IC50 was 549 nM. Still for that read-out and setting: with `CC(=O)N(c1cc(C(=O)O)cc(C(=O)c2ccc(N(C)c3ccc(Cl)cc3)cn2)c1)C1CCOCC1` [9:44, 3-{5-[(4-Chlorophenyl)(methyl)amino]picolinoyl}-5-[N-(4-tetrahydropyranyl)-acetamido]benzoic acid] the figure was 2550 nM; with `CCCCCCC(=O)Nc1cc(C(=O)O)cc(C(=O)c2ccc(N(C)c3ccc(Cl)cc3)cc2)c1` [Example 1:2, 3-{4-[(4-Chlorophenyl)(methyl)amino]benzoyl}-5-heptylamidobenzoic acid], 139 nM; with `CC(=O)N(c1ccccc1)c1cc(C(=O)O)cc(C(=O)c2ccc(N(C)c3ccc(Cl)cc3)cn2)c1` [Example 9:23, 3-{5-[(4-Chlorophenyl)(methyl)amino]picolinoyl}-5-(N-phenylacetamido)benzoic acid], 199 nM. For the compound `CCCCCCNC(=O)c1cc(C(=O)O)cc(C(=O)c2ccc(N(C)c3ccc(Cl)cc3)cn2)c1` [2:5, 3-{5-[(4-Chlorophenyl)(methyl)amino]picolinoyl}-5-(hexylcarbamoyl)benzoic acid], the IC50 turned out to be 102 nM. The same measure, in the same setting: next, `CN(c1ccc(Cl)cc1)c1ccc(C(=O)c2cc(Oc3cccc(OC(F)(F)F)c3)cc(C(=O)O)c2)cc1` [8:10, 3-{4-[(4-Chlorophenyl)(methyl)amino]benzoyl}-5-[3-(trifluoromethoxy)phenoxy]-benzoic acid]: 171 nM; `CN(c1ccc(Cl)cc1)c1ccc(C(=O)c2cc(Oc3ccc(C#N)cc3)cc(C(=O)O)c2)nc1` [8:7, 3-{5-[(4-Chlorophenyl)(methyl)amino]picolinoyl}-5-(4-cyanophenoxy)benzoic acid]: 274 nM. On the same count and under the same terms, with `CN(c1ccc(Cl)cc1)c1ccc(C(=O)c2cc(Oc3ccccc3Cl)cc(C(=O)O)c2)cc1` [8:19, 3-(2-Chlorophenoxy)-5-{4-[(4-chlorophenyl)(methyl)amino]benzoyl}benzoic acid] the figure was 80 nM. Still for that read-out and setting: next, `CN(c1ccc(Cl)cc1)c1ccc(C(=O)c2cc(C(=O)O)cc(N(CCCC(F)(F)F)c3ccccc3)c2)cc1` [10:37, 3-{4-[(4-Chlorophenyl)(methyl)amino]benzoyl}-5-[phenyl(4,4,4-trifluorobutyl)-amino]benzoic acid]: 252 nM; `CN(c1ccc(Cl)cc1)c1ccc(C(=O)c2cc(Nc3ccccc3Cl)cc(C(=O)O)c2)nc1` [9:5, 3-{5-[(4-Chlorophenyl)(methyl)amino]picolinoyl}-5-(2-chlorophenylamino)-benzoic acid]: 160 nM. As for `O=C(O)c1cc(Nc2ccc(Cl)cc2)cc(C(=O)c2ccc(Nc3ccc(Cl)cc3)cc2)c1` [Example 3, 3-(4-Chorophenylamino)-5-[4-(4-chlorophenylamino)benzoyl]benzoic acid], the IC50 was 146 nM. The same measure, in the same setting: next, `COc1ccc(N(C)c2cc(C(=O)O)cc(C(=O)c3ccc(N(C)c4ccc(Cl)cc4)cn3)c2)cc1` [9:28, 3-{5-[(4-Chlorophenyl)(methyl)amino]picolinoyl}-5-[(4-methoxyphenyl)(methyl)-amino]benzoic acid]: 137 nM; `COc1ccccc1N(C(C)=O)c1cc(C(=O)O)cc(C(=O)c2ccc(N(C)c3ccc(Cl)cc3)cn2)c1` [9:24, 3-{5-[(4-Chlorophenyl)(methyl)amino]picolinoyl}-5-[N-(2-methoxyphenyl)-acetamido]benzoic acid]: 932 nM. Still for that read-out and setting: with `CCCCOc1ccc(S(=O)(=O)Nc2cc(C(=O)O)cc(C(=O)c3ccc(Nc4ccc(Cl)cc4)cc3)c2)cc1` [Example 7, 3-(4-Butoxybenzensulfonamido)-5-[4-(4-chlorophenylamino)benzoyl]benzoic acid] the figure was 89 nM.

For the compound `COc1cccc(Oc2cc(C(=O)O)cc(C(=O)c3ccc(N(C)c4ccc(Cl)cc4)cn3)c2)c1` [8:3, 3-{5-[(4-Chlorophenyl)(methyl)amino]picolinoyl}-5-(3-methoxyphenoxy)benzoic acid], the IC50 came out at 188 nM.

Consider `CN(c1ccc(Cl)cc1)c1ccc(C(=O)c2cc(Cc3ccccc3)cc(C(=O)O)c2)nc1` [Example 13, 3-Benzyl-5-{5-[(4-chlorophenyl)(methyl)amino]picolinoyl}benzoic acid], for which the 50% inhibitory concentration (IC50) worked out at 298 nM. Same read-out and setting: with `CC(C)CN(c1ccccc1)c1cc(C(=O)O)cc(C(=O)c2ccc(N(C)c3ccc(Cl)cc3)cc2)c1` [10:35, 3-{4-[(4-Chlorophenyl)(methyl)amino]benzoyl}-5-[isobutyl(phenyl)amino]-benzoic acid] the figure was 176 nM.

Still in this assay, the particulars now being: 5 min; total concentration of title compound in the assay 10 μM.
Consider `CCCCCCC(=O)Nc1ccc(C(=O)c2ccc(Nc3ccc(Cl)cc3)cc2C(=O)O)cc1` [Example 4:1, 5-(4-Chlorophenylamino)-2-(4-heptylamidobenzoyl)benzoic acid], for which the inhibition (commonly the share of the control response that was lost under treatment) at 10 µM came out at 98%. Take `CCCCCCC(=O)Nc1cc(C(=O)O)cc(C(=O)c2ccc(N(C)c3ccc(Cl)cc3)cc2)c1` [Example 1:2, 3-{4-[(4-Chlorophenyl)(methyl)amino]benzoyl}-5-heptylamidobenzoic acid]: the inhibition at 10 µM was 94%.

On to `O=C(O)c1cc(Nc2ccc(Cl)cc2)cc(C(=O)c2ccc(Nc3ccc(Cl)cc3)cc2)c1` [Example 3, 3-(4-Chorophenylamino)-5-[4-(4-chlorophenylamino)benzoyl]benzoic acid], for which the inhibition at 10 µM was determined as 99%. On the same count and under the same terms, with `CCCCOc1ccc(S(=O)(=O)Nc2cc(C(=O)O)cc(C(=O)c3ccc(Nc4ccc(Cl)cc4)cc3)c2)cc1` [Example 7, 3-(4-Butoxybenzensulfonamido)-5-[4-(4-chlorophenylamino)benzoyl]benzoic acid] the figure was 98%.
